Assay results: patent US20250230155A1 (Vanderbilt University, priority 2021, published 2025)

Biological target: T1, human mAChR M4 (Homo sapiens, UniProt P08173)
T1 construct: expressed in transfected cells
T1 sequence (P08173 1-479): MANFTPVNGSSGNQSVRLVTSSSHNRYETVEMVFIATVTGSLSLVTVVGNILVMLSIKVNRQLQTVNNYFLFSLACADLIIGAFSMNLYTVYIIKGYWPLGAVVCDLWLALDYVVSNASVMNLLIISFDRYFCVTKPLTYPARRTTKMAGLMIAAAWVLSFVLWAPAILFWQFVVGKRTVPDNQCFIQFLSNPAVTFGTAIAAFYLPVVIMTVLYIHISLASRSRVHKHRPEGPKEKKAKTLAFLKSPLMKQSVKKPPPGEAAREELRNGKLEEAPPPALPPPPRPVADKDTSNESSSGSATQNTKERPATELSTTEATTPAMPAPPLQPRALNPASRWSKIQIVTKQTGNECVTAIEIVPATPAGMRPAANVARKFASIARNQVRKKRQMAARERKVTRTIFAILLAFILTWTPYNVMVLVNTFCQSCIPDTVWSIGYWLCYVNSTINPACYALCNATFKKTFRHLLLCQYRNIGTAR
Assay: mAChR M4 cell-based functional assay (calcium mobilization, CHO-K1 hM4-Gqi5 cells)
Conditions: for EC50: positive allosteric modulator activity, increase in the EC20 acetylcholine response, CHO-K1 hM4-Gqi5 cells, read-out: Human M4 EC50; for Emax at 30 µM: CHO-K1, % ACh maximum at 30 μM, human M4
Procedure: Human and rat M4 cDNAs, along with the chimeric G protein Gqi5, were transfected into Chinese hamster ovary (CHO-K1) cells purchased from the American Type Culture Collection using Lipofectamine2000. hM4-Gqi5 cells were grown in Ham's F-12 medium containing 10% heat-inactivated fetal bovine serum (FBS), 20 mM HEPES, 50 μg/mL G418 sulfate, and 500 μg/mL Hygromycin B. rM4-Ggi5 cells were grown in DiVEM containing 10% heat-inactivated FBS, 20 mM THEPES, 400 μμg/mL G418 sulfate, and 500 μμg/mL Hygromycin B.
For high throughput measurement of agonist-evoked increases in intracellular calcium, CHO-K1 cells stably expressing muscarinic receptors were plated in growth medium lacking G418 and hygromycin at 15,000 cells/20 μL/well in Greiner 384-well black-walled, tissue culture (TC)-treated, clear-bottom plates (VWR). Cells were incubated overnight at 37° C. and 5% CO2. The next day, cells were washed using an ELX 405 (BioTek) with assay buffer; the final volume was then aspirated to 20 μL. Next, 20 μL of a […] of Fluo-4/acetoxymethyl ester (Invitrogen, Carlsbad, CA), prepared as a 2.3 mM stock in DMSO and mixed in a 1:1 ratio with 10% (w/v) Pluronic F-127 and diluted in assay buffer, was added to the wells and the cell plates were incubated for 50 min at 37° C. and 5% C02. Dye was removed by washing with the ELX 405 and the final volume was aspirated to 20 μL. Compound master plates were formatted in an 11 point concentration-response curve (CRC) format (1:3 dilutions) in 100% DMSO with a starting concentration of 10 mM using a BRAVO liquid handler (Agilent). Test compound CRCs were then transferred to daughter plates (240 nL) using the Echo acoustic plate reformatter (Labcyte, Sunnyvale, CA) and then diluted into assay buffer (40 μL) to a 2× stock using a Thermo Fisher Combi (Thermo Fisher Scientific, Waltham, MA).
Calcium flux was measured using the Functional Drug Screening System (FDSS) 6000 or 7000 (Hamamatsu Corporation, Tokyo, Japan) as an increase in the fluorescent static ratio. Compounds were applied to cells (20 μL, 2×) using the automated system of the FDSS at 2-4 seconds into the protocol and the data were collected at 1 Hz. At 144 seconds, 10 μL of an EC20 concentration of the muscarinic receptor agonist acetylcholine was added (5×), followed by the addition of 12 μL of an EC80 concentration of acetylcholine at the 230 second time point (5×). Agonist activity was analyzed as a concentration-dependent increase in calcium mobilization upon compound addition. Positive allosteric modulator activity was analyzed as a concentration-dependent increase in the EC20 acetylcholine response. Antagonist activity was analyzed as a concentration-dependent decrease in the EC80 acetylcholine response. Concentration-response curves were generated using a four-parameter logistical equation in XLFit curve fitting software (IDBS, Bridgewater, NJ) for Excel (Microsoft, Redmond, WA) or Prism (GraphPad Software, Inc., San Diego, CA).
Compounds were synthesized as described above. Activity (EC50 and Emax) was determined in the mAChR M4 cell-based functional assay as described above and the data are shown in Table 2. The compound number corresponds to the compound numbers used in Table 1.

Compound | EC50 [nM] | Emax at 30 µM [%] | Emax (CHO-K1) [%]
Cn1nccc1Nc1cnc2c(c1)CN(c1nc(Cl)nc3c1COC3)CC2 [compound 288, 6-(2-chloro-5,7-dihydrofuro[3,4-d]pyrimidin-4-yl)-N-(1-methyl-1H-pyrazol-5-yl)-5,6,7,8-tetrahydro-1,6-naphthyridin-3-amine] | 1220 |  | 
Cc1cc(C#N)cnc1N1CCc2ncc(-c3ccc(F)nc3)cc2C1 [Example 319, 6-(3-(6-fluoropyridin-3-yl)-7,8-dihydro-1,6-naphthyridin-6(5H)-yl)-5-methylnicotinonitrile] | 144 | 76 | 
Cc1nc(Cl)c(C)c(N2CCc3ncc(-c4cnn(CC5CC5)c4)cc3C2)n1 [compound 194, 6-(6-chloro-2,5-dimethyl-pyrimidin-4-yl)-3-[1-(cyclopropylmethyl)pyrazol-4-yl]-7,8-dihydro-5H-1,6-naphthyridine] | 211 | 93 | 
Cc1cc(C#N)cnc1N1CCc2ncc(C3CCOC3)cc2C1 (stereo not drawn) [Example 395, 5-methyl-6-(3-(tetrahydrofuran-3-yl)-7,8-dihydro-1,6-naphthyridin-6(5H)-yl)nicotinonitrile] | 389 | 90 | 
Cc1cc(C#N)nnc1N1CCc2ncc(Nc3ccncc3F)cc2C1 [Example 598, 6-(3-((3-fluoropyridin-4-yl)amino)-7,8-dihydro-1,6-naphthyridin-6(5H)-yl)-5-methylpyridazine-3-carbonitrile] | 25 | 98 | 
Cc1cc(C(=O)NCc2cncc(Br)c2)cnc1N1CCc2ncccc2C1 [compound 139, N-[(5-bromo-3-pyridyl)methyl]-6-(7,8-dihydro-5H-1,6-naphthyridin-6-yl)-5-methyl-pyridine-3-carboxamide] | 1360 | 70 | 
Cc1c(C(=O)NCc2cncs2)nnc(N2CCc3ncc(C(F)(F)F)cc3C2)c1C [Example 465, 4,5-dimethyl-N-(thiazol-5-ylmethyl)-6-(3-(trifluoromethyl)-7,8-dihydro-1,6-naphthyridin-6(5H)-yl)pyridazine-3-carboxamide] | 44 | 101 | 
[2H]C1([2H])Cc2ncc(-c3ccnn3C)cc2C([2H])([2H])N1c1nnc(C#N)cc1C [Example 617, 5-methyl-6-(3-(1-methyl-1H-pyrazol-5-yl)-7,8-dihydro-1,6-naphthyridin-6(5H)-yl-5,5,7,7-d4)pyridazine-3-carbonitrile] | 2460 | 88 | 
Cc1nc(Cl)c(C)c(N2CCc3ncc(Oc4ccc5c(c4)OCCO5)cc3C2)n1 [compound 206, 6-(6-chloro-2,5-dimethyl-pyrimidin-4-yl)-3-(2,3-dihydro-1,4-benzodioxin-6-yloxy)-7,8-dihydro-5H-1,6-naphthyridine] | 534 | 77 | 
Cc1nc(Cl)c(C)c(N2Cc3cc(C(F)(F)F)cnc3C(C)C2)n1 (stereo not drawn) [compound 256, 6-(6-chloro-2,5-dimethylpyrimidin-4-yl)-8-methyl-3-(trifluoromethyl)-5,6,7,8-tetrahydro-1,6-naphthyridine] | 663 | 85 | 
Cc1c(C#N)nnc(N2CCc3ncc(C4CC4)cc3C2)c1C [Example 317, 6-(3-cyclopropyl-7,8-dihydro-1,6-naphthyridin-6(5H)-yl)-4,5-dimethylpyridazine-3-carbonitrile] | 98 | 85 | 
[2H]C1([2H])N(c2cnc3c(c2)CN(c2nnc(C#N)cc2C)CC3)c2ccnn2C([2H])([2H])C1([2H])[2H] [Example 416, 6-(3-(6,7-dihydropyrazolo[1,5-a]pyrimidin-4(5H)-yl-5,5,6,6,7,7-d6)-7,8-dihydro-1,6-naphthyridin-6(5H)-yl)-5-methylpyridazine-3-carbonitrile] | 116 | 115 | 
COCc1nc(Cl)c(C)c(N2CCc3ncc(-c4cncs4)cc3C2)n1 [compound 217, 5-(6-(6-chloro-2-(methoxymethyl)-5-methylpyrimidin-4-yl)-5,6,7,8-tetrahydro-1,6-naphthyridin-3-yl)thiazole] | 539 | 96 | 
Cc1cc(C(=O)N2CC(F)C2)nnc1N1CCc2ncc(Nc3ccnn3C)cc2C1 [Example 559, (3-fluoroazetidin-1-yl)(5-methyl-6-(3-((1-methyl-1H-pyrazol-5-yl)amino)-7,8-dihydro-1,6-naphthyridin-6(5H)-yl)pyridazin-3-yl)methanone] | 64 | 73 | 
Cc1nn(C)cc1-c1cnc2c(c1)CN(c1nc(NC3CCOC3)nc(C)c1C)CC2 (stereo not drawn) [compound 273, 4-(3-(1,3-dimethyl-1H-pyrazol-4-yl)-7,8-dihydro-1,6-naphthyridin-6(5H)-yl)-5,6-dimethyl-N-(tetrahydrofuran-3-yl)pyrimidin-2-amine] | 639 | 92 | 
Cc1c(C#N)nnc(N2CCc3ncc(N4CC(C)Cn5nccc54)cc3C2)c1C (stereo not drawn) [Example 374, 4,5-dimethyl-6-(3-(6-methyl-6,7-dihydropyrazolo[1,5-a]pyrimidin-4(5H)-yl)-7,8-dihydro-1,6-naphthyridin-6(5H)-yl)pyridazine-3-carbonitrile] | 248 | 96 | 
Cc1cnccc1Nc1cnc2c(c1)CN(c1nnc(C#N)cc1C)CC2 [Example 619, 5-methyl-6-(3-((3-methylpyridin-4-yl)amino)-7,8-dihydro-1,6-naphthyridin-6(5H)-yl)pyridazine-3-carbonitrile] | 1020 | 86 | 
Cc1nn(C)cc1-c1cnc2c(c1)CN(c1nc(N3CCOCC3)nc(C)c1C)CC2 [compound 270, 4-(4-(3-(1,3-dimethyl-1H-pyrazol-4-yl)-7,8-dihydro-1,6-naphthyridin-6(5H)-yl)-5,6-dimethylpyrimidin-2-yl)morpholine] | 896 | 70 | 
Cc1c(C#N)nnc(N2CCc3ncc(C(F)F)cc3C2)c1C [Example 308, 6-(3-(difluoromethyl)-7,8-dihydro-1,6-naphthyridin-6(5H)-yl)-4,5-dimethylpyridazine-3-carbonitrile] | 405 | 94 | 
Cc1cc(C(=O)N2CCC2C)nnc1N1CCc2ncc(N3CCCn4nccc43)cc2C1 (stereo not drawn) [Example 550, (6-(3-(6,7-dihydropyrazolo[1,5-a]pyrimidin-4(5H)-yl)-7,8-dihydro-1,6-naphthyridin-6(5H)-yl)-5-methylpyridazin-3-yl)(2-methylazetidin-1-yl)methanone] | 86 | 111 | 
Cc1cc(C#N)cnc1N1CCc2ncc(Br)cc2C1 [Example 594, 6-(3-bromo-7,8-dihydro-1,6-naphthyridin-6(5H)-yl)-5-methylnicotinonitrile] | 132 |  | 84
Cc1cc(C(=O)NCc2cnc3ccccc3c2)cnc1N1CCc2ncccc2C1 [compound 140, 6-(7,8-dihydro-5H-1,6-naphthyridin-6-yl)-5-methyl-N-(3-quinolylmethyl)pyridine-3-carboxamide] | 1030 | 62 | 
Cc1nc(C)c(-c2cnc3c(c2)CN(c2ncc(C#N)cc2C)CC3)s1 [compound 184, 6-[3-(2,4-dimethylthiazol-5-yl)-7,8-dihydro-5H-1,6-naphthyridin-6-yl]-5-methyl-pyridine-3-carbonitrile] | 106 | 111 | 
